Like-named read-outs stand apart in the source and are kept apart here. Non-standard residues stand in square brackets, D forms with d. Residues, ends and D or L forms follow the SMILES beside them.
Key:
[1] = system: S. aureus (MRSA) ATCC 33591; format: cell-based, Staphylococcus aureus; settings: Table 9
Method: (§1) The antimicrobial activity of the peptides was determined using a broth dilution assay essentially as descried in the guidelines of the National Committee for […] (NCCLS) [National Committee for Clinical Laboratory Standards. Methods for dilution antimicrobial susceptibility tests for bacteria that grow aerobically. Fourth edition. Approved Standard (1997). Document M7-A4. […] The microdilution method has the advantages of requiring less amount of peptide for each assay and the possibility of multiple simultaneous inoculations and was used in most studies. Several of the strains of bacteria tested are further described in Table 3.
(§2) Preparation of peptide solutions. Stock peptide solutions were prepared in 5% DMSO in aq. sucrose (9%). Determination of peptide concentrations was done by quantitative HPLC analysis using known concentrations of internal standards and/or by measuring UV absorption of tryptophane-containing peptide solutions in H2O (λ=280 εTrp: 5690). Serial 2-fold dilutions were made in the above DMSO/aq. sucrose (9%) mixture with concentrations ranging approximately 400-2 μg/ml and aliquots were dispensed in test tubes (100 μl) for the macrodilution test or in microtiter plates (20 μl) for the microdilution assays.
(§3) Inoculum preparation. Overnight cultures of different microorganisms grown in suitable media were diluted 4000 times to an approximate inoculum size of 2.5×10^5 cfu/ml.
(§4) Macrodilution method. Macrodilution methods were performed using procedures similar to those described in the National Committee for Clinical Laboratory Standards. Methods for dilution antimicrobial susceptibility tests for bacteria that grow aerobically. Fourth edition. Approved Standard (1997). Document M7-A4. (NCCLS,Villanova, Pa., 1997). Two ml aliquots of the above inoculum were dispensed to test tubes containing different peptide solutions.
(§5) Microdilution method. Microdilution methods were performed using procedures similar to those described in the National Committee for Clinical Laboratory Standards. Methods for dilution antimicrobial susceptibility tests for bacteria that grow aerobically. Fourth edition. Approved Standard (1997). Document M7-A4.

[2] = system: vancomycin-resistant Enterococus faecalis (VRE)(ATCC 51575); format: cell-based, Enterococcus faecalis; parameters: key to VRE (in vitro activity): peptide concentration in μg/ml (broth dilution assay); settings: Table 9
Method: as §1, §2, §3, §4, §5

murine red blood cells = assay: Red blood cell hemolysis; format: cell-based, mouse
Method: Selectivity of cyclic peptides for bacterial over mammalian cells was evaluated by measuring red blood cell hemolytic activities as described in Tosteson, M. T. Holmes, S. J., Razin, M. and Tosteson, D. C. Melittin Lysis of Red Cells, J. Membrane Biol. 87, 35-44(1985). Heparinized murine blood was centrifuged at 1000×g for 10 minutes. The supernatant and the buffy coat were removed. Erythrocytes were washed three times with 0.9% saline solution and then resuspended to a concentration of 5% in saline containing 10% FBS (v/v). Red blood cells were then treated with serial dilutions of test peptides in a 96 well plate at 37° C. for 30 minutes. Control samples included a saline solution arid 1% Triton X-100 as 0 and 100% hemolysis, respectively. In some cases, mellitin was used as a further control. Mellitin is a linear peptide that is hemolytic against mammalian red blood cells in vitro at a concentration of about 10 μg/ml. Plates were centrifuged at 1000 g for 10 minutes. Aliquots of the supernatant were diluted 2 times with saline solution and the absorbance was measured at 560 nm.

[3] = media b: cation adjusted Meuller Hinton broth (MHBII)
[4] = media c: Brain Heart Infusion (BHI)
[5] = media a: anti-microbial media-3 (AM-3)

| SMILES | MRSA (in vitro activity) [1, 3] | VRE (in vitro activity) [2, 4] | RBC Hemolysis (HD50) (murine red blood cells) | MRSA (in vitro activity) [1, 5] | VRE (in vitro activity) ([2]; media a: AM-3) |
| --- | --- | --- | --- | --- | --- |
| CC(C)C[C@H]1NC(=O)[C@H](CCCCN)NC(=O)[C@@H](CC(C)C)NC(=O)[C@H](CCCCN)NC(=O)[C@@H](CC(C)C)NC(=O)[C@H](CCCCN)NC(=O)[C@@H](CC(C)C)NC(=O)[C@H](CCCCN)NC1=O [SEQ ID NO:4, KLKLKLKL] (cyclo(K[dL]K[dL]K[dL]K[dL])) | >200 | >200 | >200 | – | – |
| CC(C)C[C@H]1NC(=O)[C@H](Cc2c[nH]c3ccccc23)NC(=O)[C@@H](Cc2ccccc2)NC(=O)[C@H](CCCCN)NC(=O)[C@@H](Cc2ccccc2)NC(=O)[C@H](Cc2c[nH]c3ccccc23)NC(=O)[C@@H](CC(C)C)NC(=O)[C@H](Cc2c[nH]c3ccccc23)NC1=O [SEQ ID NO:40, [KFWLWLWF]] (cyclo(K[dF]W[dL]W[dL]W[dF])) | – | – | >44 | 33 | >44 |
| CC(C)C[C@H]1NC(=O)[C@H](CCCCN)NC(=O)[C@@H](CC(C)C)NC(=O)[C@H](Cc2c[nH]c3ccccc23)NC(=O)[C@@H](CC(C)C)NC(=O)[C@H](Cc2c[nH]c3ccccc23)NC(=O)[C@@H](CC(C)C)NC(=O)[C@H](Cc2c[nH]c3ccccc23)NC1=O [SEQ ID NO:41, [KLWLWLWL]] (cyclo(K[dL]W[dL]W[dL]W[dL])) | 12 | 25 | 30 | – | – |
| CC(C)C[C@H]1NC(=O)[C@H](Cc2c[nH]c3ccccc23)NC(=O)[C@@H](CO)NC(=O)[C@H](CCCCN)NC(=O)[C@@H](Cc2ccccc2)NC(=O)[C@H](Cc2c[nH]c3ccccc23)NC(=O)[C@@H](CC(C)C)NC(=O)[C@H](Cc2c[nH]c3ccccc23)NC1=O [SEQ ID NO:42, [KSWLWLWF]] (cyclo(K[dS]W[dL]W[dL]W[dF])) | – | – | >26 | >26 | >26 |
| CC(C)C[C@H]1NC(=O)[C@H](Cc2c[nH]c3ccccc23)NC(=O)[C@@H](Cc2c[nH]c3ccccc23)NC(=O)[C@H](CCCCN)NC(=O)[C@@H](Cc2c[nH]cn2)NC(=O)[C@H](Cc2c[nH]c3ccccc23)NC(=O)[C@@H](CC(C)C)NC(=O)[C@H](Cc2c[nH]c3ccccc23)NC1=O [SEQ ID NO:43, [KWWLWLWH]] (cyclo(K[dW]W[dL]W[dL]W[dH])) | – | – | >23 | 13 | 17 |
| CC(C)C[C@H]1NC(=O)[C@H](Cc2c[nH]c3ccccc23)NC(=O)[C@@H](Cc2c[nH]c3ccccc23)NC(=O)[C@H](CCCCN)NC(=O)[C@@H](Cc2c[nH]c3ccccc23)NC(=O)[C@H](CCCCN)NC(=O)[C@@H](CC(C)C)NC(=O)[C@H](Cc2c[nH]c3ccccc23)NC1=O [SEQ ID NO:44, [KWWLWLKW]] (cyclo(K[dW]W[dL]W[dL]K[dW])) | – | – | >58 | 4 | 4 |
| CC(C)C[C@H]1NC(=O)[C@H](C)NC(=O)[C@@H](CC(C)C)NC(=O)[C@H](CCCCN)NC(=O)[C@@H](Cc2c[nH]cn2)NC(=O)[C@H](CCCCN)NC(=O)[C@@H](CC(C)C)NC(=O)[C@H](C)NC1=O [SEQ ID NO:45, [KHKLALAL]] (cyclo(K[dH]K[dL]A[dL]A[dL])) | 50 | 200 | >200 | – | – |
| CC(C)C[C@H]1NC(=O)[C@H](C)NC(=O)[C@@H](CC(C)C)NC(=O)[C@H](CCCCN)NC(=O)[C@@H](Cc2c[nH]cn2)NC(=O)[C@H](CCCCN)NC(=O)[C@@H](CC(C)C)NC(=O)[C@H](Cc2c[nH]c3ccccc23)NC1=O [SEQ ID NO:46, [KHKLALWL]] (cyclo(K[dH]K[dL]A[dL]W[dL])) | 25 | 50 | >200 | – | – |
| CC(C)C[C@H]1NC(=O)[C@H](C)NC(=O)[C@@H](CC(C)C)NC(=O)[C@H](Cc2ccccc2)NC(=O)[C@@H](CC(C)C)NC(=O)[C@H](CCCCN)NC(=O)[C@@H](Cc2c[nH]cn2)NC(=O)[C@H](CCCCN)NC1=O [SEQ ID NO:47, [KHKLFLAL]] (cyclo(K[dH]K[dL]F[dL]A[dL])) | 3 | 13 | >220 | – | – |
